Values of other authors as cited in US20240082224A1, “METHODS OF TREATING HEMATOLOGICAL MALIGNANCY USING NANOPARTICLE MTOR INHIBITOR COMBINATION THERAPY” (Abraxis BioScience, LLC, priority 2015, published 2024).

Legend:
[1] = in vivo
ABCB1 = ABCB1 (Homo sapiens, UniProt P08183)
ABCG2 = target: T1, ABCG2 (Homo sapiens, UniProt Q9UNQ0)
T1 sequence (Q9UNQ0 1-655): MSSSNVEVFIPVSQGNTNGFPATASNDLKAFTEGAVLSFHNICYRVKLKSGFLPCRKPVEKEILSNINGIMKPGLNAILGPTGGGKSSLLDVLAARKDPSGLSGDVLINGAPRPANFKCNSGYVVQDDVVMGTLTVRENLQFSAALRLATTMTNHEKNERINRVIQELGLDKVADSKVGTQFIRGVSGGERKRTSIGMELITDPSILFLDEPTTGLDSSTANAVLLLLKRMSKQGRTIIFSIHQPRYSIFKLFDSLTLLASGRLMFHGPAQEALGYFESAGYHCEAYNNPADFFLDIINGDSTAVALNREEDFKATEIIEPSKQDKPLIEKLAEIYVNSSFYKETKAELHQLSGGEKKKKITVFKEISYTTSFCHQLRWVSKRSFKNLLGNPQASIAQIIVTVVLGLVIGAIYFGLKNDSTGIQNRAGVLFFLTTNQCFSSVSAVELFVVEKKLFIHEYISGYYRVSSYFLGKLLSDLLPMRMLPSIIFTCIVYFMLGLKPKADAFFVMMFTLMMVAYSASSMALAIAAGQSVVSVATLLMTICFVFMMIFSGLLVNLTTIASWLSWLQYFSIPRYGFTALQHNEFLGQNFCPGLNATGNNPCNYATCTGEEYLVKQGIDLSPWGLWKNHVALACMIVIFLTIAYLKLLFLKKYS

Sequence of ABCB1 (P08183 whole entry, species assumed): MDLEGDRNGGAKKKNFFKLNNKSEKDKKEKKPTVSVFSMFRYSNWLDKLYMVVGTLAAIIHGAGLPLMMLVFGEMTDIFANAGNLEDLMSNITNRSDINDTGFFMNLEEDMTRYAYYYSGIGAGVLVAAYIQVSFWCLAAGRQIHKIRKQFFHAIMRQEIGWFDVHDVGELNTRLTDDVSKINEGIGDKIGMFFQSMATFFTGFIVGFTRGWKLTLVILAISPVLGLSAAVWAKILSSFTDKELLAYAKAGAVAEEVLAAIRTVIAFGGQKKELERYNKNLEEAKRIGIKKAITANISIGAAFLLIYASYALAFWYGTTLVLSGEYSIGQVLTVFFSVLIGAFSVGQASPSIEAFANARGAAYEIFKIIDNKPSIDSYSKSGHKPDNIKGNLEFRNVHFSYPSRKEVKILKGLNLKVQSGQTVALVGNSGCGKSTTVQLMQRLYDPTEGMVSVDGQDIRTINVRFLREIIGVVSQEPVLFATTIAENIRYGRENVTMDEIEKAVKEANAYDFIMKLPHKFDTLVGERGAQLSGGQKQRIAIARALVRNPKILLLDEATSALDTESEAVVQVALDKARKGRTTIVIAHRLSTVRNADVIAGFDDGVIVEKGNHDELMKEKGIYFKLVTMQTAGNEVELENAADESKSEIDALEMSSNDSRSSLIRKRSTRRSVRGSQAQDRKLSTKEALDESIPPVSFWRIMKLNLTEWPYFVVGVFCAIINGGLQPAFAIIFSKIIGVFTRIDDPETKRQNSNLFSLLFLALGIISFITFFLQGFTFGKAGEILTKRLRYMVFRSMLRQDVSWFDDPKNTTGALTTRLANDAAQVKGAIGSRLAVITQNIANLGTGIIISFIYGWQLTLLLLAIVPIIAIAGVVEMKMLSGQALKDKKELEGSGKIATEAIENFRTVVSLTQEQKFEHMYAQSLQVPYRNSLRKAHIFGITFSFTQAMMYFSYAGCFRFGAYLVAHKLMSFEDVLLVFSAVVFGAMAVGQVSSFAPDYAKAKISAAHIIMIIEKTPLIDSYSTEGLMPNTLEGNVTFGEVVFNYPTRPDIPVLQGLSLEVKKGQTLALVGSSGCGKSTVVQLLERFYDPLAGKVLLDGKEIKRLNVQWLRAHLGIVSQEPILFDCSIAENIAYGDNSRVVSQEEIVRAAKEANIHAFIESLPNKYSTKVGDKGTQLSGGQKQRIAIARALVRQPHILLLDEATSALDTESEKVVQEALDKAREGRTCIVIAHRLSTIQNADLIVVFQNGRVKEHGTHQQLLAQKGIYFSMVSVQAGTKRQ

Compound	brain penetration [1]	affinity for ABCB1 (ABCB1)	affinity for ABCG2 (ABCG2)	CML patients who respond (CML patients; imatinib)	patients progressing to advanced disease (CML patients; within 5 years)
COc1ccc(COc2cc3oc(=O)c4cc(C(C)O)ccc4c3cc2OC)cc1 (centres unmarked) [Palomid 529]	good brain penetration	lacks affinity	lacks affinity	–	–
Cc1ccc(NC(=O)c2ccc(CN3CCN(C)CC3)cc2)cc1Nc1nccc(-c2cccnc2)n1 [imatinib]	–	–	–	80%	under 3%
